According to patent publication US11226337B2, “Chemoproteomic profiling of protein electrophilic and oxidative post-translational modifications” (Zenagem, LLC, priority 2017, dated 2022):

Experiments:
[1] = molecular target: T1, PLOD1 Procollagenlysine, 2oxoglutarate (Q02809) (Homo sapiens, UniProt Q02809); experiment: SILAC RP-ABPP; type: cell-based; details: SILAC H/L, MDA-MB-231
T1 construct: In Situ Labelling of Cells with Hydrazine Probes for MS Experiments; endogenous in cells
T1 sequence (Q02809 19-727): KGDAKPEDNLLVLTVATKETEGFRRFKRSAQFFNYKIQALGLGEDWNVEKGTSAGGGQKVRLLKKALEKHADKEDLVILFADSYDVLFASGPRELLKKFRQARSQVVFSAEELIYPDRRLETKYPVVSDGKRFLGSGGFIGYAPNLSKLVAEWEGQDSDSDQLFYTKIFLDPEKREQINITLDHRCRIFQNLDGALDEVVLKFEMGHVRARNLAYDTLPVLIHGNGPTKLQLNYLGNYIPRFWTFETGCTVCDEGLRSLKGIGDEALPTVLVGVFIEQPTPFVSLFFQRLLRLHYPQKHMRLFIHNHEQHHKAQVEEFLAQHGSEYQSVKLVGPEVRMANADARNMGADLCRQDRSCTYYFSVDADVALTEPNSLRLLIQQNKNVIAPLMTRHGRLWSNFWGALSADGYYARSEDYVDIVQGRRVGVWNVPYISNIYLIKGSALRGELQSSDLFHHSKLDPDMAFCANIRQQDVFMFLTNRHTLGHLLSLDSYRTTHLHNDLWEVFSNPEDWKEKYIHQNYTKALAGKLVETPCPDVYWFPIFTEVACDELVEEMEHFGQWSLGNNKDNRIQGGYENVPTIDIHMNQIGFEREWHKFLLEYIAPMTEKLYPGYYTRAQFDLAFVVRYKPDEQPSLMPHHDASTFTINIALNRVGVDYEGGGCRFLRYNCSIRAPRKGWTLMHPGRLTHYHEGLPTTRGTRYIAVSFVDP

[2] = molecular target: T2, LEPRE1 Prolyl 3hydroxylase 1 (Q32P28) (Homo sapiens, UniProt Q32P28); experiment: SILAC RP-ABPP; type: cell-based; details: SILAC H/L, MDA-MB-231
T2 construct: In Situ Labelling of Cells with Hydrazine Probes for MS Experiments; endogenous in cells
T2 sequence (Q32P28 23-736): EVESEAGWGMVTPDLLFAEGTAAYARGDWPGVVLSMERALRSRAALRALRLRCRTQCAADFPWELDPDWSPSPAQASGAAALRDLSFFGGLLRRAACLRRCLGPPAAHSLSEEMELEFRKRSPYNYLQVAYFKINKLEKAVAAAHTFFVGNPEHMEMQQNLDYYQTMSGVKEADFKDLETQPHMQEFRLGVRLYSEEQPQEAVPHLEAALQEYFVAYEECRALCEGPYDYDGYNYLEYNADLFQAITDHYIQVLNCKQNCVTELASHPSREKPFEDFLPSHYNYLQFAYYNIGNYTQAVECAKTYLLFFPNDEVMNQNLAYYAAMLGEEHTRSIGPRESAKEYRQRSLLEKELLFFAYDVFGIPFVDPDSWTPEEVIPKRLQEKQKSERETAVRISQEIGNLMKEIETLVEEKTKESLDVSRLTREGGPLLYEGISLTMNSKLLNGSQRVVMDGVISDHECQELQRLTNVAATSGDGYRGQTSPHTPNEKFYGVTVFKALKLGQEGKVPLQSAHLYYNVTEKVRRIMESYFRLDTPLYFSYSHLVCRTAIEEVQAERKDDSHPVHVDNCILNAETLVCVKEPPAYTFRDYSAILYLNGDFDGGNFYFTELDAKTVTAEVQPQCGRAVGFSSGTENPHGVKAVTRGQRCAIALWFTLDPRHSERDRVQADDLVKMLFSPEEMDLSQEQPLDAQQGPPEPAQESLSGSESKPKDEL

Row | Compound | enrichment ratioavg ([1]; probe 1 3 mM 0.5 h vs probe 3) | competition ratioavg ([1]; probe 1 vs probe 1+10x probe 3) | enrichment ratioavg ([2]; probe 1 3 mM 0.5 h vs probe 3) | competition ratioavg ([2]; probe 1 vs probe 1+10x probe 3) | enrichment ratioavg ([1]; probe 2 1 mM 0.5 h vs probe 4) | competition ratioavg ([1]; probe 2 vs probe 2+10x probe 4) | enrichment ratioavg ([2]; probe 2 1 mM 0.5 h vs probe 4) | competition ratioavg ([2]; probe 2 vs probe 2+10x probe 4)
1 | C#CCNN.Cl [probe 1, prop-2-yn-1-ylhydrazine hydrochloride] | 6 | 3 | 8 | 3 |  |  |  | 
2 | C#CCCNC(=O)c1ccc(NN)cc1.Cl [probe 2, N-(but-3-yn-1-yl)-4-hydrazinylbenzamide hydrochloride] |  |  |  |  | 8 | 3 | 8 | 2
